According to patent publication US9125415B2, “Thiophene based oligomers as light activated biocides” (STC, UNM, priority 2011, dated 2015):
Marks after values point to notes of the source that are not given here.

Tests used:
[1] = UV-Visible absorption spectra; format: physicochemical; conditions: for λmax (absorption): MeOH; for λmax (Absorption/nm): Water
Method: (§1) NMR spectra were recorded using a Varian VXR-300 FT-NMR, operating at 300 MHz for ^1H NMR and at 75.4 MHz for ^13C NMR. UV-Visible spectra were recorded using a Varian Cary 100 dual beam spectrophotometer. Corrected steady-state fluorescence spectra were obtained with a PTI spectrometer. A 1 cm square quartz cuvette was used for solution spectra, and emission was collected at 90° relative to excitation beam. Fluorescence quantum yields are reported relative to known standards. The optical density of solutions at the excitation wavelength was ≦0.1, and corrections were applied for differences in the refractive index of standard and sample solutions. Transient absorption spectra were collected using a laser systems that is described elsewhere.^17,18 The optical density of the solutions was adjusted to ˜0.7 at the excitation wavelength (355 nm) with the laser energy set at 6-7 mJ. Solutions were purged with argon for 45 min before making transient absorption spectroscopy measurements. Singlet oxygen quantum yields were measured using a Photon Technology International Quantamaster near-IR spectrophotometer equipped with an InGaAs photodiode detector, optical chopper and a lock in amplifier.

[2] = Steady-state fluorescence spectra and fluorescence quantum yields relative to known standards; format: physicochemical
Method: as §1

Fluorescence lifetime = format: physicochemical; conditions: component amplitude in brackets
[3] = Transient absorption spectroscopy (triplet excited state); format: physicochemical; conditions: for TTAbs (ΔA, t = 0): methanol, Abs=0.7 at λex, λex=355 nm for 4a and 4b, 425 nm for 4c, immediately following the laser pulse
Method: Transient absorption experiments were carried out both in methanol and in water (excitation at 355 nm, 5 ns pulse, […] fluence). […] The important photophysical data obtained in methanol solution are consolidated in Table 1 (see supporting information for data in aqueous solution). FIGS. 5 and 6 compare transient absorption difference spectra obtained immediately following the laser pulse in methanol. […] Pulse energy and ground state absorption matched. […] The response curves from each of the repetitive time increments is indicated by sequential numbers 1-8 in both FIGS. 6A and 6B. Samples were purged with argon for 45 min before the measurements. A higher life time is observed for the triplet excited state in water than in methanol.
as §1

[4] = Singlet oxygen quantum yield (sensitization, emission at 1260 nm); format: physicochemical; conditions: CD3OD; 2′-acetonaphthone (ΦΔ = 0.79) as actinometer
Text: The important and necessary feature of the biocidal agents triggered by light is their ability to sensitize the formation of singlet oxygen. Having established the formation of triplet state by direct excitation of the oligomers 4a and 4b (but not 4c), we determined their ability to sensitize singlet oxygen in deuterated methanol (ΦΔ, Table 1). […] From the above results it is evident that the oligomer with terthiophene back bone is the most efficient sensitizer for singlet oxygen.
as §1

[5] = test system: Staphylococcus aureus (ATCC 10832); assay: Antibacterial studies, dead/live assay by flow cytometry (SYTO21 / propidium iodide); format: cell-based; conditions: for dark antibacterial activity / dark toxicity (in words) / light-dependent toxicity versus the bacterial cells (in words) / percentage of killed S. aureus cells: 1 μg/mL oligomer; for dark antibacterial activity / dark toxicity (in words) / light-dependent toxicity versus the bacterial cells (in words): up to 90 min
Text: There has been an increasing interest in the prevention of staphylococcal infections because of the increasing number of infections caused by methicillin-resistant S. aureus (MRSA), which is the most common cause of hospital-acquired infections. Our previous studies with oligo (phenylene ethynylene) type oligomers have clearly established that these oligomers are effective against variety of bacteria in the presence of light. […] As our objective is to develop visible light activated biocidal oligomers, we investigated the antibacterial activity of compounds 4a-c and against Staphylococcus aureus (S. aureus). After oligomer solutions were incubated with S. aureus under visible light illumination or in the dark, the antibacterial effect of the three oligomers was evaluated at time 0, 15, 30, 45, 60, and 90 min by flow cytometry analysis after staining the bacterial suspensions with live/dead fluorescent dyes (SYTO21, green fluorescence=live, and propidium iodide, red fluorescence=dead). FIGS. 7 and 8 show plots of the percentage of dead bacteria cells versus light exposure time of the thiophene-based oligomeric series at […]. […] The antibacterial efficiency of three oligomers increases with increasing irradiation time. In the control sample where oligomers were not added to the bacterial suspension most cells (>90% as shown in flow cytometry data) were viable and appear green fluorescence. Dark antibacterial activity was not observed from 4a and 4b; however, 4c kills ˜27% of bacteria after 90 min of incubation of bacteria with 4c.
Staphylococcus aureus (ATCC 10832, American Type Culture Collection) was grown in Brain Heart Infusion (BHI, Difco) and stored at […] with 20% (v/v) glycerol (EMD) before use. Stock cultures maintained on agar plates (2%, Difco) were used to inoculate 50 mL cultures in liquid BHI. The cultures were incubated at 37° C. for 18 hours. The bacteria were then centrifuged and washed twice with 0.85% NaCl followed by counting in a hemocytometer to normalize bacterial concentration in 20 mL of 0.85% NaCl (8×10^6 cells/mL) for antibacterial tests. Control samples containing only bacterial cells, and desired concentrations of oligomer/bacteria mixture samples were exposed to the visible light for 15, 30, 45, 60 and 90 min in a LuzChem ORG photoreactor using Sylvania T5 bulbs (λ=350-799 nm). Another set of samples were incubated in the dark for 15, 30, 45, 60 and 90 min. Then dead/live assays were conducted using SYTO21 (green fluorescence=live) and propidium iodide (red fluorescence=dead) purchased from Invitrogen. After bacteria were incubated with the oligomers in the light and dark conditions, a 1:1 ratio of dyes (2.4 μL) were added to the samples and kept in the dark for 15 min. Finally, the bacteria were examined using an Accuri C6 flow cytometer where 2×10^4 cells were analyzed from 8×10^6 cell solution. The number of live cells and dead cells corresponding to green and red fluorescence respectively were counted and compared by flow cytometry. Results are shown graphically in FIGS. 7 and 8.

[6] = test system: Staphylococcus aureus (ATCC 10832); assay: as above; format: cell-based; conditions: visible light substituted with UV light
[7] = MeOH, quinine sulfate in 0.1M sulfuric acid (ΦF = 0.54) as actinometer
[8] = Water, quinine sulfate in 0.1M sulfuric acid (ΦF = 0.54) as actinometer
[9] = visible light, 90 min of irradiation

Row | SMILES | λmax (absorption) [1] [nm] | λmax (Absorption/nm) [1] [nm] | λmax (fluorescence) ([2]; MeOH) [nm] | ΦF (fluorescence quantum yield) [2, 7] | λmax (Fluorescence/nm) ([2]; Water) [nm] | ΦF (fluorescence quantum yield) [2, 8] | TTAbs (λ/nm)/MeOH [3] [nm] | TTAbs (λ/nm) in Water ([3]; Water) [nm] | TTAbs (ΔA, t = 0) [3] | ΦΔ (singlet oxygen quantum yield) [4] | dark antibacterial activity / dark toxicity (in words) ([5]; dark) | light-dependent toxicity versus the bacterial cells (in words) ([5]; visible light) | percentage of killed S. aureus cells [5, 9] | further results
1 | C[N+](C)(C)CCCc1ccc(-c2ccc(-c3ccc(CCC[N+](C)(C)C)s3)s2)s1.[Cl-].[Cl-] [4a] | 364 | 368 | 437 | 0.06 ± 0.02 | 437 | 0.058 ± 0.02 | 467 | 467 | 0.55 | 0.74 ± 0.02 | not observed | marked light-dependent toxicity | ~93% | shift of absorption in water compared to methanol ([1]; red shift for 4a, blue shift for 4b and 4c): ~4 nm; τF/ns (MeOH) (Fluorescence lifetime; MeOH, 4a at 450 nm): 0.18 ns; τF/ns (Water) (Fluorescence lifetime; Water, 4a 450 nm, 4b 500 nm, 4c 600 nm): 0.19 ns; TTAbs (ΔA, t = 0) in Water ([3]; Water): 0.43; τtriplet (μs) in Water ([3]; Water): 17.9 μs; biocidal activity at higher concentrations (in words) ([5]; in the presence of light, 5 and 10 μg/mL): virtually eliminates the bacterial population within a few minutes; concentration at which the compound is an effective biocide ([5]; in the presence of light, within 30 minutes): ≥ 1 µg/mL; light activated antibacterial activity under UV light (in words) [6]: the most efficient compound in killing bacteria in the presence of light
2 | Cn1nc2c(-c3ccc(CCC[N+](C)(C)C)s3)ccc(-c3ccc(CCC[N+](C)(C)C)s3)c2n1.[Cl-].[Cl-] [4b] | 390 | 385 | 460 | 0.51 ± 0.02 | 460 | 0.340 ± 0.02 | 492 | 492 | 0.39 | 0.49 ± 0.03 | not observed | marked light-dependent toxicity | about 35% | 
3 | C[N+](C)(C)CCCc1ccc(-c2ccc(-c3ccc(CCC[N+](C)(C)C)s3)c3nsnc23)s1.[Cl-].[Cl-] [4c] |  | 454 | 615 |  | 610 |  | 529 | 529 |  | no singlet oxygen emission was detected | significant dark toxicity | marked light-dependent toxicity | about 35% | ΦF (fluorescence quantum yield) ([2]; MeOH, fluorescein in 0.1M NaOH (ΦF = 0.92) as actinometer): 0.23 ± 0.02^b; percentage of killed S. aureus cells ([5]; dark, 90 min of incubation): ~27%
